The values that follow are results of earlier work, collected in patent publication US20030219387A1, “Local delivery of agents for disruption and inhibition of bacterial biofilm for treatment of periodontal disease” (priority 2000, published 2003).

In the case of `CC(=N)N1CC[C@H](Oc2ccc([C@H](Cc3ccc4ccc(C(=N)N)cc4c3)C(=O)O)cc2)C1` [DX-9065a], the inhibition of gingipain entry in the data set with gingipain is “can inhibit gingipain”. For the same compound, the “reduction of P. gingivalis growth” value in the data set on P. gingivalis was “selectively reduces P. gingivalis growth”.
